This is an account of results in article PMC3796545, “Protein-Protein Interactions as a Strategy towards Protein-Specific Drug Design: The Example of Ataxin-1” (PLoS ONE, 2013).

What is called pKd is −log10 of the Kd, conventionally taken in molar units.

pKd: −log10 of the molar value. Peptide text beside a SMILES is read from it.

The assay has as its target T1, ATX1 AXH (residues A567–K689 of human ATX1) (Homo sapiens, UniProt P54253).
T1 construct: Recombinant ATX1 AXH (residues A567–K689 of human ATX1); His6-GST (N, cleaved yes); made in house; host or cells: E. coli BL21(DE3)pLysS
T1 sequence (P54253 566-688 limits assumed): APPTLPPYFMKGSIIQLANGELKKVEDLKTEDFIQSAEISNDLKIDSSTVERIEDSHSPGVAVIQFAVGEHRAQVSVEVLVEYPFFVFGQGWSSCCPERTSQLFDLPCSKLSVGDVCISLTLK
Kind of assay: ITC binding of CIC peptides to ATX1 AXH. The following applies: 25°C, 50 mM Tris-HCl pH 7, 50 mM NaCl, 2 mM TCEP, 0.041 mM AXH in cell, 0.410 mM peptide in syringe, averages of three measurements, read-out: dissociation constant (Kd). As to the method: Binding affinities of AXH with CIC ligands were measured at 25°C by a MicroCal Omega VP-ITC (MicroCal Inc., Northampton, USA). Both protein and peptides buffers were 50 mM Tris-HCl pH 7, 50 mM NaCl, 2 mM TCEP. Solutions of 0.041 mM AXH in the cell were titrated by injections of a total of 283 µl of 0.410 mM peptide in the syringe in 21 aliquots. Data were processed with the software MicroCal Origin version 5.0 provided by the manufacturer. All dissociation constants were averages of three measurements.
Turning to `CC(C)C[C@H](NC(=O)[C@H](Cc1ccccc1)NC(=O)[C@@H]1CCCN1C(=O)[C@@H](NC(=O)[C@H](CC(C)C)NC(=O)[C@H](CO)NC(=O)[C@H](Cc1c[nH]cn1)NC(=O)[C@H](Cc1c[nH]c2ccccc12)NC(=O)[C@@H]1CCCN1C(=O)[C@H](Cc1ccccc1)NC(=O)[C@@H](N)C(C)C)C(C)C)C(=O)NCC(=O)N1CCC[C@H]1C(=O)N[C@@H](CO)C(=O)N[C@@H](CCC(N)=O)C(=O)O` [A45] (H-VFPWHSLVPFLGPSQ-OH), the pKd is 7.70.

For the compound `CC(C)C[C@H](NC(=O)[C@H](Cc1ccccc1)NC(=O)[C@@H]1CCCN1C(=O)[C@@H](NC(=O)[C@H](CC(C)C)NC(=O)[C@H](CO)NC(=O)[C@H](Cc1c[nH]cn1)NC(=O)[C@H](Cc1c[nH]c2ccccc12)NC(=O)[C@@H]1CCCN1)C(C)C)C(=O)N[C@@H](C)C(=O)N1CCC[C@H]1C(=O)N[C@@H](CO)C(=O)N[C@@H](CCC(N)=O)C(=O)O` [CICp] (H-PWHSLVPFLAPSQ-OH), the negative logarithm of the Kd (pKd) was 5.10.

Turning to `CC(C)C[C@H](NC(=O)[C@H](Cc1ccccc1)NC(=O)[C@@H]1CCCN1C(=O)[C@@H](NC(=O)[C@H](CC(C)C)NC(=O)[C@H](CO)NC(=O)[C@H](Cc1c[nH]cn1)NC(=O)[C@H](Cc1c[nH]c2ccccc12)NC(=O)[C@@H]1CCCN1C(=O)[C@H](C)NC(=O)[C@@H](N)C(C)C)C(C)C)C(=O)N[C@@H](C)C(=O)N1CCC[C@H]1C(=O)N[C@@H](CO)C(=O)N[C@@H](CCC(N)=O)C(=O)O` [F35] (H-VAPWHSLVPFLAPSQ-OH), the pKd is 7.52.

Turning to `CC(C)C[C@H](NC(=O)[C@H](C)NC(=O)[C@@H]1CCCN1C(=O)[C@@H](NC(=O)[C@H](CC(C)C)NC(=O)[C@H](CO)NC(=O)[C@H](Cc1c[nH]cn1)NC(=O)[C@H](Cc1c[nH]c2ccccc12)NC(=O)[C@@H]1CCCN1C(=O)[C@H](Cc1ccccc1)NC(=O)[C@@H](N)C(C)C)C(C)C)C(=O)N[C@@H](C)C(=O)N1CCC[C@H]1C(=O)N[C@@H](CO)C(=O)N[C@@H](CCC(N)=O)C(=O)O` [F43] (H-VFPWHSLVPALAPSQ-OH), the negative-log Kd (pKd) was 7.22.

Take `CC(C)C[C@H](NC(=O)[C@H](Cc1ccccc1)NC(=O)[C@@H]1CCCN1C(=O)[C@@H](NC(=O)[C@H](CC(C)C)NC(=O)[C@H](CO)NC(=O)[C@H](C)NC(=O)[C@H](Cc1c[nH]c2ccccc12)NC(=O)[C@@H]1CCCN1C(=O)[C@H](Cc1ccccc1)NC(=O)[C@@H](N)C(C)C)C(C)C)C(=O)N[C@@H](C)C(=O)N1CCC[C@H]1C(=O)N[C@@H](CO)C(=O)N[C@@H](CCC(N)=O)C(=O)O` [H38] (H-VFPWASLVPFLAPSQ-OH): the pKd was 7.30.

As for `CC(C)C[C@H](NC(=O)[C@H](Cc1ccccc1)NC(=O)[C@@H]1CCCN1C(=O)[C@@H](NC(=O)[C@H](C)NC(=O)[C@H](CO)NC(=O)[C@H](Cc1c[nH]cn1)NC(=O)[C@H](Cc1c[nH]c2ccccc12)NC(=O)[C@@H]1CCCN1C(=O)[C@H](Cc1ccccc1)NC(=O)[C@@H](N)C(C)C)C(C)C)C(=O)N[C@@H](C)C(=O)N1CCC[C@H]1C(=O)N[C@@H](CO)C(=O)N[C@@H](CCC(N)=O)C(=O)O` [L40] (H-VFPWHSAVPFLAPSQ-OH), the negative logarithm of the Kd (pKd) is 6.30.

In the case of `CC(C)C[C@H](NC(=O)[C@H](CO)NC(=O)[C@H](Cc1c[nH]cn1)NC(=O)[C@H](Cc1c[nH]c2ccccc12)NC(=O)[C@@H]1CCCN1C(=O)[C@H](Cc1ccccc1)NC(=O)[C@@H](N)C(C)C)C(=O)N[C@H](C(=O)N1CCC[C@H]1C(=O)N[C@@H](Cc1ccccc1)C(=O)N[C@@H](C)C(=O)N[C@@H](C)C(=O)N1CCC[C@H]1C(=O)N[C@@H](CO)C(=O)N[C@@H](CCC(N)=O)C(=O)O)C(C)C` [L44] (H-VFPWHSLVPFAAPSQ-OH), the negative logarithm of the Kd (pKd) was 7.30.
